Test results as given in patent US11214594B2, “Antimicrobial peptide having synergistic antibacterial effect with antibiotics on multidrug resistant bacteria, and use thereof” (priority 2016, dated 2022).
Values after ≈ are worked out from the molar mass of the structure shown. Like-named read-outs stand apart in the source and are kept apart here. Where a SMILES comes first, the peptide text is derived from it. [ ]: non-standard residue; d: D form.

Assays:
MDRPA 2002 = format: cell-based, Pseudomonas aeruginosa
How it was run: (§1)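 Broth microdilution in MH medium: bacterial strains diluted to 2×10^6 CFU were mixed with equal volumes of peptide serially diluted twofold in MH medium.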

MDRPA 2003 = format: cell-based, Pseudomonas aeruginosa
How it was run: as §1

MDRAB 12035 [1] = assay: microbe, parasite or virus in culture; format: cell-based, Acinetobacter baumannii
How it was run: as §1

A. baumannii [2] = assay: microbe, parasite or virus in culture; format: cell-based, Acinetobacter baumannii
How it was run: as §1

MDREC 1229 = format: cell-based, Escherichia coli
How it was run: (§2)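 Antibiotic MIC came from antibiotic dilutions added to bacteria (2×10^6 CFU/ml, MH medium) already combined with peptide serially diluted 2:1 from its own MIC. Swapping the roles of the two agents gave the peptide MIC.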

E. coli = format: cell-based, Escherichia coli; settings: E. coli
How it was run: as §2

[3] = system: multi-drug resistant bacteria; assay: MIC, summary statements for multi-drug resistant bacteria; format: cell-based
How it was run: as §1

MDRAB 12035 [4] = assay: MIC of antibiotic during combined treatment with antimicrobial peptide; format: cell-based, Acinetobacter baumannii
How it was run: as §2

A. baumannii [5] = assay: as above; format: cell-based, Acinetobacter baumannii; settings: for Antibiotic MIC, Erythromycin / Antibiotic MIC, Linezolid / Antibiotic MIC, Vancomycin: A. baumannii
How it was run: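 MIC values for mixed peptide plus antibiotic solutions were measured in MH medium.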

B. subtilis = assay: microbe, parasite or virus in culture; format: cell-based, Bacillus subtilis
How it was run: as §1

[6] = peptide treatment concentration 1 μg/ml
[7] = peptide treatment concentration 2 μg/ml
[8] = peptide treatment concentration 4 μg/ml
[9] = peptide treatment concentration 6 μg/ml
[10] = peptide treatment concentration 8 μg/ml
[11] = peptide treatment concentration 16 μg/ml
[12] = peptide treatment concentration 32 μg/ml
[13] = peptide treatment concentration 64 μg/ml
[14] = combined with peptide at 1 μg/ml
[15] = combined with peptide at 2 μg/ml
[16] = combined with peptide at 4 μg/ml
[17] = combined with peptide at 6 μg/ml
[18] = combined with peptide at 8 μg/ml
[19] = combined with peptide at 16 μg/ml
[20] = combined with peptide at 32 μg/ml
[21] = combined with peptide at 64 μg/ml

CC[C@H](C)[C@H](NC(=O)[C@H](CCCCN)NC(=O)[C@H](Cc1c[nH]c2ccccc12)NC(=O)[C@@H](N)CCCNC(=N)N)C(=O)N[C@@H](Cc1ccccc1)C(=O)N[C@@H](CCCCN)C(=O)N[C@@H](CCCCN)C(=O)N[C@H](C(=O)N[C@H](CC(C)C)C(=O)N[C@@H](CCCCN)C(=O)N[C@@H](CC(C)C)C(=O)N[C@@H](CC(C)C)C(=O)N[C@@H](Cc1c[nH]cn1)C(=O)N[C@@H](CCCCN)C(=O)N[C@@H](C)C(=O)N[C@@H](CCCCN)C(=O)N[C@@H](CCCCN)C(=O)N[C@@H](Cc1c[nH]c2ccccc12)C(N)=O)[C@@H](C)CC [PapMA-22, RWK IFK KIl KLL HKA KKW-NH2] (H-RWKIFKKI[dL]KLLHKAKKW-NH2; N-terminus assumed)
Minimal inhibitory concentration MIC (MDRPA 2002): 32 µg/mL (≈ 13.5 µM) | Minimal inhibitory concentration MIC (MDRPA 2003): 32 µg/mL (≈ 13.5 µM) | Minimal inhibitory concentration MIC (MDRAB 12035 [1]): 32 µg/mL (≈ 13.5 µM) | Peptide MIC, peptide alone (MDRAB 12035 [1]): 32 µg/mL | Minimal inhibitory concentration MIC (A. baumannii [2]): 16 µg/mL (≈ 6.77 µM) | Peptide MIC, peptide alone (A. baumannii [2]): 16 µg/mL | Antibacterial activity relative to PapMA-1 (A. baumannii [2]; A. baumannii and S. typhimurium): at least twice as high | Peptide MIC during treatment with antibiotic (MDREC 1229; erythromycin 32 μg/ml (Conc./MIC 1/8)): 2 µg/mL | Peptide MIC during treatment with antibiotic (MDREC 1229; erythromycin 64 μg/ml (Conc./MIC 1/4)): 2 µg/mL | Peptide MIC during treatment with antibiotic (MDREC 1229; erythromycin […] (Conc./MIC 1)): 0 µg/mL | Peptide MIC during treatment with antibiotic (MDREC 1229; erythromycin […] (Conc./MIC 1/2)): 1 µg/mL | Peptide MIC during treatment with antibiotic (MDREC 1229; linezolid 64 μg/ml (Conc./MIC 1/8)): 8 µg/mL | Peptide MIC during treatment with antibiotic (MDREC 1229; linezolid 512 μg/ml (Conc./MIC 1)): 0 µg/mL | Peptide MIC during treatment with antibiotic (MDREC 1229; linezolid […] (Conc./MIC 1/2)): 1 µg/mL | Peptide MIC during treatment with antibiotic (MDREC 1229; linezolid […] (Conc./MIC 1/4)): 4 µg/mL | Peptide MIC during treatment with antibiotic (MDREC 1229; vancomycin 512 μg/ml (Conc./MIC 1/2)): 2 µg/mL | Peptide MIC during treatment with antibiotic (MDREC 1229; vancomycin 1024 μg/ml (Conc./MIC 1)): 2 µg/mL | Peptide MIC during treatment with antibiotic (MDREC 1229; vancomycin […] (Conc./MIC 1/4)): 4 µg/mL | Peptide MIC during treatment with antibiotic (MDREC 1229; vancomycin […] (Conc./MIC 1/8)): 8 µg/mL | Peptide MIC (E. coli; with Erythromycin […] (Conc./MIC 1)): 0 µg/mL | Peptide MIC (E. coli; with Linezolid […] (Conc./MIC 1)): 0 µg/mL | Peptide MIC (E. coli; with Vancomycin 1024 μg/ml (Conc./MIC 1)): 0 µg/mL | Antibacterial activity relative to PapMA-1 [3]: twice to four times higher | Erythromycin MIC during combined treatment with peptide (MDRAB 12035 [4]; [6]): 32 µg/mL | Linezolid MIC during combined treatment with peptide (MDRAB 12035 [4]; [6]): >128 µg/mL | Vancomycin MIC during combined treatment with peptide (MDRAB 12035 [4]; [6]): >128 µg/mL | Erythromycin MIC during combined treatment with peptide (MDRAB 12035 [4]; [7]): 32 µg/mL | Linezolid MIC during combined treatment with peptide (MDRAB 12035 [4]; [7]): >128 µg/mL | Vancomycin MIC during combined treatment with peptide (MDRAB 12035 [4]; [7]): >128 µg/mL | Erythromycin MIC during combined treatment with peptide (MDRAB 12035 [4]; [8]): 16 µg/mL | Linezolid MIC during combined treatment with peptide (MDRAB 12035 [4]; [8]): 64 µg/mL | Vancomycin MIC during combined treatment with peptide (MDRAB 12035 [4]; [8]): 128 µg/mL | Erythromycin MIC during combined treatment with peptide (MDRAB 12035 [4]; [9]): 2 µg/mL | Linezolid MIC during combined treatment with peptide (MDRAB 12035 [4]; [9]): 16 µg/mL | Vancomycin MIC during combined treatment with peptide (MDRAB 12035 [4]; [9]): 32 µg/mL | Erythromycin MIC during combined treatment with peptide (MDRAB 12035 [4]; [10]): 1 µg/mL | Linezolid MIC during combined treatment with peptide (MDRAB 12035 [4]; [10]): 16 µg/mL | Vancomycin MIC during combined treatment with peptide (MDRAB 12035 [4]; [10]): 16 µg/mL | Erythromycin MIC during combined treatment with peptide (MDRAB 12035 [4]; [11]): 0.25 µg/mL | Linezolid MIC during combined treatment with peptide (MDRAB 12035 [4]; [11]): 8 µg/mL | Vancomycin MIC during combined treatment with peptide (MDRAB 12035 [4]; [11]): 8 µg/mL | Erythromycin MIC during combined treatment with peptide (MDRAB 12035 [4]; [12]): 0 µg/mL | Linezolid MIC during combined treatment with peptide (MDRAB 12035 [4]; [12]): 0 µg/mL | Vancomycin MIC during combined treatment with peptide (MDRAB 12035 [4]; [12]): 0 µg/mL | Erythromycin MIC during combined treatment with peptide (MDRAB 12035 [4]; [13]): 0 µg/mL | Linezolid MIC during combined treatment with peptide (MDRAB 12035 [4]; [13]): 0 µg/mL | Vancomycin MIC during combined treatment with peptide (MDRAB 12035 [4]; [13]): 0 µg/mL | Synergistic effect of antibacterial activity with existing antibiotics compared with PapMA-1 (A. baumannii [5]; A. baumannii and MDRAB 12035): level similar to that of PapMA-1 peptide | Antibiotic MIC, Erythromycin (A. baumannii [5]; [14]): 32 µg/mL | Antibiotic MIC, Linezolid (A. baumannii [5]; [14]): >128 µg/mL | Antibiotic MIC, Vancomycin (A. baumannii [5]; [14]): >128 µg/mL | Antibiotic MIC, Erythromycin (A. baumannii [5]; [15]): 32 µg/mL | Antibiotic MIC, Linezolid (A. baumannii [5]; [15]): >128 µg/mL | Antibiotic MIC, Vancomycin (A. baumannii [5]; [15]): 128 µg/mL | Antibiotic MIC, Erythromycin (A. baumannii [5]; [16]): 8 µg/mL | Antibiotic MIC, Linezolid (A. baumannii [5]; [16]): 32 µg/mL | Antibiotic MIC, Vancomycin (A. baumannii [5]; [16]): 64 µg/mL | Antibiotic MIC, Erythromycin (A. baumannii [5]; [17]): 2 µg/mL | Antibiotic MIC, Linezolid (A. baumannii [5]; [17]): 16 µg/mL | Antibiotic MIC, Vancomycin (A. baumannii [5]; [17]): 32 µg/mL | Antibiotic MIC, Erythromycin (A. baumannii [5]; [18]): 1 µg/mL | Antibiotic MIC, Linezolid (A. baumannii [5]; [18]): 8 µg/mL | Antibiotic MIC, Vancomycin (A. baumannii [5]; [18]): 8 µg/mL | Antibiotic MIC, Erythromycin (A. baumannii [5]; [19]): 0 µg/mL | Antibiotic MIC, Linezolid (A. baumannii [5]; [19]): 0 µg/mL | Antibiotic MIC, Vancomycin (A. baumannii [5]; [19]): 0 µg/mL | Antibiotic MIC, Erythromycin (A. baumannii [5]; [20]): 0 µg/mL | Antibiotic MIC, Linezolid (A. baumannii [5]; [20]): 0 µg/mL | Antibiotic MIC, Vancomycin (A. baumannii [5]; [20]): 0 µg/mL | Antibiotic MIC, Erythromycin (A. baumannii [5]; [21]): 0 µg/mL | Antibiotic MIC, Linezolid (A. baumannii [5]; [21]): 0 µg/mL | Antibiotic MIC, Vancomycin (A. baumannii [5]; [21]): 0 µg/mL | Minimal inhibitory concentration MIC (B. subtilis): >128 µg/mL
